# Reference: patent US7858348B2, “N-acetyl-(R,S)-beta-amino acid acylase gene” (Ajinomoto Co., Inc., priority 2006, dated 2010)
# Legend:
# Assay type in all cases: biochemical
# [1] = tested on: N-acetyl-(S)-β-amino acid acylase derived from Burkholderia sp. AJ110349 (JM109/pSFN_2BS cell-free extract); test: Substrate specificity and optical selectivity with cell-free extract of JM109/pSFN_2BS; conditions: for optical selectivity of β-amino acid produced (ee) / β-amino acid enantiomer detected in the reaction solution: JM109/pSFN-2BS, chiral HPLC; for optical selectivity of β-amino acid produced (ee): after reacting for 24 hours; for β-amino acid enantiomer detected in the reaction solution: 24 hours (10 minutes for the 3,4-(—O—CH2—O—) substrate); for Concentration of acetic acid detected: JM109/pSFN_2BS 50 mU cell-free extract, 37° C.
# Protocol: (§1) An Astec Chirobiotec T (0.46 cm in diameter, 25 cm) column was employed. A 90 percent MeOH mobile phase was employed. The temperature was 40° C. and the flow rate was 0.4 mL/minute. Optical selectivity was determined based on comparison with various standard (R) and (S) standard products under UV detection conditions of 205 nm.
# (§2) The column employed was comprised of an Inertsil ODS3 (0.46 cm in diameter, 5 cm) made by GL Science and a Chiralpak WH (0.46 cm in diameter, 25 cm) made by Daisel Chemical Industries, arranged consecutively in that order. The mobile phase was 1 mM CuSO4, 10 percent MeOH. The temperature was 50° C. and the flow rate was 1.0 mL/minute. Detection was conducted with a UV detector at 210 nm and optical selectivity was determined by comparison with standard (R) and (S) products.
# (§3) JM109/ptrp4—3BR, JM109/pSFN—2BS, and JM109/pSFN—1VR were precultured for 16 hours at 37° C. in LB medium containing 100 mg/L of ampicillin. 1 mL quantity of the cultured bacterial cells was transplanted to 50 mL of TB medium containing 100 mg/L of ampicillin and cultured for 16 hours at 30° C. The bacterial cells obtained were centrifugally separated to concentrate the bacteria cells. The bacterial cells were washed with 50 mM Tris buffer solution (pH 7.6) and the same buffer solution was used to prepare a bacterial cell suspension. Ultrasonic rupturing was employed to rupture the bacterial cells. A supernatant solution obtained by centrifugal separation (15,000 g, 10 minutes, 4° C.) was employed as a cell-free extract, and substrate specificity for the various N-acetyl-(R,S)-β-amino acids described above in Embodiments 2-1 to 9 was examined.
# (§4) After adjusting the enzymes by the above methods, their activity was measured. Activity producing 1 μmol of β-Phe per minute from N-acetyl-(R,S)-β-Phe was denoted as 1 U. In the various examination of substrate specificity, 50 mU cell-free extracts were employed. As a negative control, instead of the cell-free medium prepared as set forth above, a 50 mM Tris buffer solution (pH 7.6) that had been reacted with each of the substrates was employed as an “Enzyme-” test zone, and instead of the individual substrates, 50 mM Tris buffer solution (pH 7.6) that had been reacted with each of the cell-free extracts was employed as a “Substrate-” test zone.
# (§5) 50 mM Tris-HCl (pH 7.6) and 0.2 percent of various N-acetyl-(R,S)-β-amino acids were reacted at 37° C. for 1 hour or 24 hours, and then processed for 10 minutes at 96° C. to stop the reactions. The quantity of acetic acid produced by the decomposition of acetyl groups was determined by the protocol of an acetic acid kit (Roche).
# (§6) After reacting for 24 hours, the samples were analyzed with various chiral resolution columns to determine optical selectivity.
# (§7) A 300 μL quantity of culture solution was washed with 50 mM Tris-HCl (pH 7.6), suspended in 300 μL of 50 mM Tris-HCl (pH 7.6), and subjected to ultrasonic rupturing to rupture the bacteria. A supernatant solution obtained by centrifugal separation (15,000 g, 10 minutes, 4° C.) was employed as cell-free extract in the reaction.
# (§8) 50 mM Tris-HCl (pH 7.6) and 0.2 percent N-acetyl-(R,S)-3,4-(—O—CH2—O—)-β-phenylalanine were reacted for 10 minutes at 37° C. When 3,4-(—O—CH2—O—)-β-phenylalanine was quantized under the separation conditions of N-acetyl-β-Phe and β-Phe, the activity per mL of cell-free extract was 0.2 U for JM109/ptrp4—3BR, 3.9 U for JM109/pSFN—2BS, and 27.8 U for JM109/pSFN—1VR.
# (§9) Various enzymes were prepared from the same bacterial cells and by the same methods as in 12-1, and 50 mU cell-free extracts were employed in the reaction. 50 mM Tris-HCl (pH 7.6) and 1 percent N-acetyl-(R,S)-β-3-Pyr-Ala were reacted for 1 hour at 37° C., after which the reaction was stopped by treatment at 70° C. for 10 minutes. The quantity of acetic acid generated by the decomposition of acetyl groups was determined by the protocol of an acetic acid kit (Roche).
# [2] = tested on: N-acetyl-(R)-β-amino acid acylase derived from Variovorax sp. AJ110348 (JM109/pSFN_1VR cell-free extract); test: Substrate specificity and optical selectivity with cell-free extract of JM109/pSFN_1VR; conditions: for Concentration of acetic acid detected: JM109/pSFN_1VR 50 mU cell-free extract, 37° C.; for optical selectivity of β-amino acid produced (ee): after reacting for 24 hours; for optical selectivity of β-amino acid produced (ee) / β-amino acid enantiomer detected in the reaction solution: chiral HPLC; for β-amino acid enantiomer detected in the reaction solution: 24 hours (10 minutes for the 3,4-(—O—CH2—O—) substrate)
# Protocol: as §1, §2, §3, §4, §5, §6, §7, §8, §9
# [3] = tested on: N-acetyl-(R)-β-amino acid acylase derived from Burkholderia sp. AJ110349 (JM109/ptrp4_3BR cell-free extract); test: Substrate specificity and optical selectivity with cell-free extract of JM109/ptrp4_3BR; conditions: for Concentration of acetic acid detected: JM109/ptrp4_3BR 50 mU cell-free extract, 37° C.; for optical selectivity of β-amino acid produced (ee): after reacting for 24 hours; for optical selectivity of β-amino acid produced (ee) / β-amino acid enantiomer detected in the reaction solution: chiral HPLC; for β-amino acid enantiomer detected in the reaction solution: 24 hours (10 minutes for the 3,4-(—O—CH2—O—) substrate)
# Protocol: as §1, §2, §3, §4, §5, §6, §7, §8, §9
# [4] = 0.2 percent substrate, 24 hours
SMILES,optical selectivity of β-amino acid produced (ee) [1],β-amino acid enantiomer detected in the reaction solution [1],"Concentration of acetic acid detected ([1]; 0.2 percent substrate, 1 hour)","Concentration of acetic acid detected [1, 4]","Concentration of acetic acid detected ([2]; 0.2 percent substrate, 1 hour)","Concentration of acetic acid detected [2, 4]",optical selectivity of β-amino acid produced (ee) ([2]; JM109/pSFN—1VR),β-amino acid enantiomer detected in the reaction solution ([2]; JM109/pSFN—1VR),"Concentration of acetic acid detected ([3]; 0.2 percent substrate, 1 hour)","Concentration of acetic acid detected [3, 4]",optical selectivity of β-amino acid produced (ee) ([3]; JM109/ptrp4—3BR),β-amino acid enantiomer detected in the reaction solution ([3]; JM109/ptrp4—3BR),"activity per mL of cell-free extract ([1]; JM109/pSFN—2BS, 0.2 percent substrate, 10 minutes at 37° C.)","activity per mL of cell-free extract ([2]; JM109/pSFN—1VR, 0.2 percent substrate, 10 minutes at 37° C.)","activity per mL of cell-free extract ([3]; JM109/ptrp4—3BR, 0.2 percent substrate, 10 minutes at 37° C.)","acetic acid detected ([1]; JM109/pSFN—2BS 50 mU cell-free extract, 1 percent substrate, 1 hour at 37° C.)","acetic acid detected ([2]; JM109/pSFN—1VR 50 mU cell-free extract, 1 percent substrate, 1 hour at 37° C.)","acetic acid detected ([3]; JM109/ptrp4—3BR 50 mU cell-free extract, 1 percent substrate, 1 hour at 37° C.)"
"CC(=O)NC(CC(=O)O)c1ccc(F)cc1 (racemic) [N-Ac-β-4-F-Phe, N-acetyl-(R,S)-4-fluoro-β-Phe]",> 99 % ee,(S)-4-fluoro-β-Phe was detected,5.2 mM,5.1 mM,4.6 mM,4.7 mM,> 99 % ee,(R)-4-fluoro-β-Phe was detected,4.6 mM,5.4 mM,94 % ee,(R)-4-fluoro-β-Phe was detected,,,,,,
"CC(=O)NC(C)CC(=O)O (racemic) [N-Ac-β-Aba, N-acetyl-(R,S)-β-aminobutyric acid]",,,0.1 mM,0.3 mM,0.0 mM,0.1 mM,,,0.1 mM,0.6 mM,,,,,,,,
"CC(=O)NC(CC(=O)O)C(C)C (racemic) [N-Ac-β-Leu, N-acetyl-(R,S)-β-Leu]",> 99 % ee,(S)-β-Leu was detected,1.6 mM,6.2 mM,0.0 mM,1.0 mM,> 99 % ee,(R)-β-Leu was detected,0.2 mM,5.6 mM,> 99 % ee,(R)-β-Leu was detected,,,,,,
"CC(=O)NC(CC(=O)O)c1ccccc1 (racemic) [N-Ac-β-Phe, N-acetyl-(R,S)-β-Phe]",,,5.3 mM,,5.2 mM,,,,5.0 mM,,,,,,,,,
"CC(=O)NC(CC(=O)O)c1ccc(O)cc1 (racemic) [N-Ac-β-Tyr, N-acetyl-(R,S)-β-Tyr]",> 99 % ee,(S)-β-Tyr was detected,5.2 mM,5.2 mM,5.1 mM,4.6 mM,> 99 % ee,(R)-β-Tyr was detected,4.5 mM,4.9 mM,61 % ee,(R)-β-Tyr was detected,,,,,,
"CC(=O)NC(CC(=O)O)CC(C)C (racemic) [N-Ac-β-homoLeu, N-acetyl-(R,S)-β-homoLeu]",> 99 % ee,(R)-β-homoLeu was detected,1.2 mM,5.4 mM,0.0 mM,0.6 mM,> 99 % ee,(S)-β-homoLeu was detected,3.0 mM,7.5 mM,69 % ee,(S)-β-homoLeu was detected,,,,,,
"CC(=O)NC(CC(=O)O)Cc1ccccc1 (racemic) [N-Ac-β-homoPhe, N-acetyl-(R,S)-β-homoPhe]",> 99 % ee,(R)-β-homoPhe was detected,0.5 mM,4.0 mM,0.1 mM,2.6 mM,> 99 % ee,(S)-β-homoPhe was detected,1.6 mM,3.7 mM,98 % ee,(S)-β-homoPhe was detected,,,,,,
"CC(=O)NC(CC(=O)O)c1ccc2c(c1)OCO2 (racemic) [N-acetyl-(R,S)-3,4-(—O—CH2—O—)-β-phenylalanine]",,"(S)-3,4-(—O—CH2—O—)-β-phenylalanine was detected",,,,,,"(R)-3,4-(—O—CH2—O—)-β-phenylalanine was detected",,,,"(R)-3,4-(—O—CH2—O—)-β-phenylalanine was detected",3.9 U,27.8 U,0.2 U,,,
"CC(=O)NC(CC(=O)O)c1cccnc1 (racemic) [N-acetyl-(R,S)-β-3-Pyr-Ala]",,,,,,,,,,,,,,,,8.4 mM,0.8 mM,3.5 mM
